Assay results as given in publication PMC7811009, “Oxytocin modulates local topography of human functional connectome in healthy men at rest” (Communications Biology, 2021).

Experiments:
[1] = tested on: human functional connectome at rest; assay: Resting-state BOLD-fMRI: mean brain-wide functional connectivity (macroscale); format: in vivo; conditions: repeated measures one-way ANOVA, F(2.271, 34.070) = 0.774, p = 0.484
Protocol: (§1) Each experimental session began with the treatment administration protocol that lasted about 22 min in total (Fig. 8, lower panel). After drug administration, participants were guided to the MRI scanner, where eight pulsed continuous arterial spin labelling scans (each lasting approx. eight minutes) were acquired, spanning 15–104 min post-dosing (data reported elsewhere[11]). The 8-min resting state BOLD-fMRI scan reported herein was obtained at about 57 ± 3.38 min post-dosing. Participants were instructed to lie still and maintain their gaze on a centrally placed fixation cross during scanning. We assessed participants’ levels of alertness (anchors: alert-drowsy) and excitement (anchors: excited-calm) using visual analogue scales (0–100) at three different time-points during the scanning session to evaluate subjective drug effects across time (data reported elsewhere[11]).
MRI data were acquired on a 3 T MR750 system (GE Healthcare, Waukesha, Wisconsin) with a 32-channel head coil. Functional data was acquired using a shot multi-echo echo planar imaging (EPI) sequence (TR = 2500 ms, TE’s = 12, 28, 44 and 60 ms, FA = 80°, FOV = 240 × 240 mm^2, Matrix = 64 × 64, Slice thickness = 3 mm, 32 continuous descending axial slices, resolution = 3.75 × 3.75 × 3 mm). […] The resting state fMRI scan lasted 8 min 10 s, with collection of a total of 192 volumes for each echo. […]

[2] = tested on: human functional connectome at rest; assay: Resting-state BOLD-fMRI, graph theory: nodal local efficiency (mesoscale); same doses, time and cohort; format: in vivo; conditions: post-hoc paired t-tests, FDR
Protocol: as §1
(§2) We used the CONN functional connectivity toolbox[97] to generate brain-wide functional connectivity matrices for each subject/session. […] The default atlas of the CONN toolbox includes 132 non-overlapping ROIs spanning cortical and subcortical areas and the cerebellum using a combination of the cortical and subcortical areas from the FSL Harvard-Oxford atlas and of the cerebellar areas of the Automatic Anatomical Labelling atlas (Supplementary data 1 for a detailed description). […] Finally, we normalized our correlation measures to z-scores using the Fisher’s r-z transform per subject/session.
We then used our z-transformed connectivity matrices to construct brain graphs representing a functional connectivity network for each subject/session. We used an undirected signed weighted approach in which we kept information about the sign and weight of each of the connections between the nodes (ROIs) of our network, without making assumptions about the direction of this relationship. […]
(§3) For each of the graph metrics analysed, we summarized the different values over the range of thresholds using the area under the curve (AUC), instead of applying multiple testing for each metric/threshold. […]

[3] = tested on: amygdala/parahippocampal gyrus and anterior cingulate; conditions: same dose of intravenous oxytocin (10 IU), same cohort; cited from earlier work
Text: Our second key finding was the observation that the regional effects of exogenous oxytocin, compared to placebo, vary as a function of the route/method of administration. Particularly striking was the observation that the intravenous administration of oxytocin induced widespread changes in regional functional connectivity across many areas potentially relevant to explaining the effects of intranasal oxytocin on human behaviour and which have been classically ascribed to direct nose-to-brain transport. One of these areas is the amygdala, where we found decreased betweenness-centrality after int ...

[4] = tested on: human functional connectome at rest; assay: Resting-state BOLD-fMRI, graph theory: nodal betweenness-centrality (mesoscale); 40 IU intranasal (spray/nebuliser) or 10 IU intravenous, about 57 min post-dosing, 16 healthy men; format: in vivo; conditions: post-hoc paired t-tests, FDR
Protocol: as §1, §2
We then used our z-transformed connectivity matrices to construct brain graphs representing a functional connectivity network for each subject/session. We used an undirected signed weighted approach in which we kept information about the sign and weight of each of the connections between the nodes (ROIs) of our network, without making assumptions about the direction of this relationship. These connectivity matrices represent fully connected networks, where each node corresponds to each of the ROIs we used to build the functional connectivity matrices and each edge represents the z-transformed value of functional connectivity between a pair of nodes. […] We used the fully weighted networks to calculate equi-sparse networks by retaining a fixed percentage (K) of the total amount of possible edges. In order to determine systematic pharmacological effects on the network’s topological organization that are not dependent on the choice of an arbitrary threshold, we chose a range of sparsity thresholds from 5 to 34%, with steps of 1%, based on previous evidence showing the characteristic small-world behaviour of human brain networks is most consistently observed for this range[30]. For each network and sparsity level, we used the MATLAB functions provided with the Brain Connectivity Toolbox[16] to compute four global and regional network metrics: global efficiency, node degree, local efficiency and betweenness-centrality. Details on the calculation of each of these metrics have been described elsewhere. The combination of these four metrics allows us to test for treatment effects on connectivity at both global and regional levels, taking into account complementary aspects of functional integration of information exchange within the brain network. […]
as §3

CC[C@H](C)[C@@H]1NC(=O)[C@H](Cc2ccc(O)cc2)NC(=O)[C@@H](N)CSSC[C@@H](C(=O)N2CCC[C@H]2C(=O)N[C@@H](CC(C)C)C(=O)NCC(N)=O)NC(=O)[C@H](CC(N)=O)NC(=O)[C@H](CCC(N)=O)NC1=O [oxytocin]
Differences in mean functional connectivity across the four treatment conditions [1]: no significant differences
Nodes with increased local efficiency compared to placebo ([2]; intravenous, 10 IU): increased the local efficiency of the right superior frontal gyrus, right frontal pole, anterior cingulate, left cuneal cortex, right posterior supramarginal gyrus and the brainstem
Nodes with increased local efficiency compared to placebo ([2]; nebuliser, 40 IU intranasal): increased the local efficiency of the right cuneal cortex and the left posterior supramarginal gyrus
Nodes with increased local efficiency compared to placebo ([2]; spray, 40 IU intranasal): increased the local efficiency of the right superior frontal gyrus, right anterior and posterior medial temporal gyri, right posterior superior temporal gyrus, right cuneal cortex and left cerebellum (area 1)
Effect on rCBF [3]: decreases rCBF in the amygdala/parahippocampal gyrus and in the anterior cingulate
Nodes with decreased betweenness-centrality compared to placebo ([4]; intravenous, 10 IU): decreased the betweenness-centrality of the right amygdala and the anterior parahipoccampal gyrus
Nodes with increased betweenness-centrality compared to placebo ([4]; intravenous, 10 IU): increased the betweenness-centrality of the right and left occipital poles, left postcentral gyrus, right supramarginal gyrus and left and right cerebellum (areas 4–5 and area 10, respectively)
Nodes with increased betweenness-centrality compared to placebo ([4]; nebuliser, 40 IU intranasal): increased the betweenness-centrality of the temporo-occipital area of the left middle temporal gyrus and the left cerebellum (area 7)
Nodes with decreased betweenness-centrality compared to placebo ([4]; spray, 40 IU intranasal): decreased the betweenness-centrality of the precuneus, right posterior supramarginal and middle temporal gyri, the left anterior middle temporal gyrus and the right cerebellum (area 9)
Nodes with increased betweenness-centrality compared to placebo ([4]; spray, 40 IU intranasal): increased the betweenness-centrality of the right orbitofrontal cortex, left lateral occipital cortex, right temporal occipital fusiform cortex and left occipital pole
